Experimental findings from patent publication US20230365570A1, “COMPOUNDS WITH GLUCOCORTICOID SPARING EFFECTS AND USES THEREOF” (The Regents of the University of California, priority 2020, published 2023) are described below.

The test system of data set [1] is THP-1 cells. Description: CXCL8 production by LPS stimulated THP-1 cells (ELISA). The data set is classed as cell-based, human. Particulars: LPS 10 ng/ml, purchased compound, mean LPS CXCL8 201.1 pg/ml = 100%. The procedure:
(§1) THP-1 cells (10^5 cells/200 μL/well) and RA FLS (104/200 μL/well) were plated in 96 well plates and pre-treated with compound or vehicle for 1 h and then stimulated with either LPS (10 ng/ml), 1L-1ß (2 ng/ml) or TNF (2 ng/ml for THP-1 and 1 ng/ml for RA FLS). After 18 h of incubation, supernatants were collected and the levels of cytokines and chemokines in the culture supernatants were measured by ELISA according to the manufacturer's protocols (R&D systems, Minneapolis, MN).
The 122 hit compounds underwent additional screening and were evaluated for their effects on cell viability and the ability to suppress production of an NF-κB-associated chemokine, CXCL8 (IL-8) by LPS stimulated THP-1 cells (FIG. 2D). The cells were also examined for viability after 24 h of stimulation by MTT assay (FIG. 2E).
Three of the eleven chemotypes were excluded based on the potential for them to be Michael acceptors, In many cases α,β-unsaturated carbonyls such as those found in these chemotypes can form adducts with thiols, especially under physiological conditions (pH=6-8), reducing the in vivo efficacy. Also, Michael acceptors are often […] IKKß inhibitors and thereby inhibit NF-KB response. […]

Data set [2] relates to THP-1 cells. The data set can be described thus: Cell viability by MTT assay in THP-1 cells. The data set is classed as cell-based, human. Particulars: for Cellular viability (% Viability compared to Veh): 10 uM (FIG. 8B). The method, then:
Two types of tetrazolium were used for viability assays. […] After 18 h of incubation, 0.5 mg/ml 3[4,5-dimethylthiazol-2-yl]-2,5-dipheyl tetrazolium bromide (MTT; Thermo Fisher Scientific) in assay media was added to each well at a final concentration of (0.5 mg/ml) and further incubated for 4-6 h. The absorbances at 570 and 650 nm were measured by a Tecan Infinite M200 plate reader, For RA FLS, the cells were dispersed into 96-well flat bottom plates (104/200 μL/well) and incubated overnight. The next day, RA FLS were treated with 5 μM of each compound for 18 h of incubation. Ten μl of WST-8 [2-(2-methoxy-4-nitrophenyl)-3-(4-nitrophenyl)-5-(2,4-disulfophewnyl)-2H-tetrazolium, monosodium salt] solution was added to each well and the cells were further incubated for 2-4 h. The absorbance was measured at 450 nm with Bio-Rad iMark plate reader (Bio-Rad Laboratories Inc., Hercules, CA, Unites States).
On the technique in general: Tetrazolium dyes change colour on reduction, which living cells bring about.

Data set [3] relates to THP-1 cells. The data set can be described thus: TNF stimulated CXCL8 release by THP-1 cells. The data set is classed as cell-based, human. Particulars: TNF 2 ng/ml, overnight (FIG. 3B). The method, then: as §1
(§2) The lead compounds belonging to chemotypes 1, 3, and 5 were tested for potency in suppressing chemokine and cytokine production by THP-1 cells in the presence of different inflammatory stimuli. The production of CXCL8 induced by either LPS (10 ng/ml), IL-1ß (2 ng/ml), or TNF (2 ng/ml) and TNF induced by IL-1ß (2 ng/ml) was assessed using serially diluted compounds. The compounds except 1-2 reduced the level of CXCL8 production stimulated by LPS in a dose dependent manner (FIG. 3A). However, the compounds from chemotype 5 enhanced CXCL8 release by THP-1 cells when stimulated with IL-111, or TNF (FIGS. 3B, C). […] The 1Cs0 for 1-1, 1-2 and 3-1 for IL-1ß stimulated CXCL8 release included 400, 1770, and 2020 nM, respectively, (FIG. 3C).

Data set [4] has as its system THP-1 cells. The data set can be described thus: IL-1ß stimulated CXCL8 release by THP-1 cells. The data set is classed as cell-based, human. Particulars: IL-1ß 2 ng/ml, overnight (FIG. 3C). The procedure:
as §1, §2

Data set [5] has as its system THP-1 cells. The data set can be described thus: IL-1ß stimulated TNF release by THP-1 cells. The data set is classed as cell-based, human. The method, then: as §1, §2
The test system of data set [6] is THP-1 cells. Description: Combination and synergy of compounds with DEX, CXCL8 release by TNF stimulated THP-1 cells. The data set is classed as cell-based, human. The procedure: Drug synergy analysis was performed using lsobologram plots which were calculated according to reported procedures to compute IC50 and determine synergism. IC50 is computed from the median effect equation. Synergism analysis is carried out using the Combination index (Cl)-isobol method. Data analysis was performed using the CompuSyn software available on combisyn.com, Detailed methodology was used as described in a prior report. Briefly, the median-effect equation is computed to obtain the linear regression for the effect of inhibitors DEX and 1−1 as Fa/Fu=(D/D50)^m, where D is the dose; Fa and Fu is the fraction of the inhibition and uninhibited response by the dose D (Fa+Fu=1); D50 is the dose producing the median effect (i.e, IC50). The constant m determines the shape of the dose-effect curve. The median-effect equation in logarithmic form is log (Fa/Fu) =m log(D)−m log (D50) which essentially represents a linear relationship between log(Fa/Fu) and log(D). […] This is followed by Cl-isobol method to quantitatively assess the synergism between these inhibitor drugs. A combination index (Cl) is estimated from dose-effect data of single and combined drug treatments. A value of C; less than one indicates synergism; Cl=1 indicates additive effect; and Cl>1 indicates antagonism. Drug interaction (synergism or antagonism) is more pronounced the further a CI value is from 1. […] The doses Dx1 and Dx2 were estimated from the median effect equation above for single drug treatments. From the median effect equation, the estimated dose (i.e., D) necessary to produce the inhibition (i.e., Fa, Fu) obtained by the combination was calculated. The results are presented as a normalized isobolograrn. A point in the isobologram represents the effect of a drug(s) treatment.
To assess whether the remaining candidate compounds would provide additional benefit to a low dose of glucocorticoid, THP-1 cells were stimulated with TNF and treated them with serially diluted compounds and 100 nM DEX (FIGS. 4A-C). […] Next whether there was an additive or synergistic effect with these three compounds and DEX was formally addressed. […] The four CXCL8 levels below the maximum plateau were used to calculate an isobologram (FIG. 5D).

Data set [7] has as its system murine bone marrow-derived dendritic cells (BMDCs). Description: TNF-α and IP-10 induction by TLR and STING ligands in murine BMDCs. The data set is classed as cell-based, mouse. The following applies: BMDCs from WT and Tmem173-/- mice (FIGS. 9A-D). The procedure: (§3) FIGS. 9A-9F show the partial STING dependent activity of nitrofuranylamide compounds 4, 5 and 6 and inhibition of TLR pathways.
(§4) Since the synthesized compounds were identified via assays in human cells, there was interest in verifying the potency of these compounds in murine cells. Compounds were incubated with murine bone marrow-derived dendritic cells (BM DCs) obtained from wild-type (WT) mice and STING null (Tmem173^−/−) mice as STING had been reported as the target of other nitrofuranylamides. […] To compare these compounds, the IC50 values of these compounds were assessed in dose titration studies.

Another data set deals with mBMDCs. Description: IFNβ induced by DMXAA in mBMDCs. The data set is classed as cell-based, mouse. The following applies: for IFNβ induced by DMXAA: mBMDCs (FIG. 9F). The procedure: as §3, §4
For a further data set, the system named is mice. Description: K/BxN serum induced arthritis and allodynia in mice. The data set is classed as in vivo, mouse. The procedure:
FIGS. 10A-10D show the in vivo activity of compound 5 in WT and STING knock-out Tmem173^−/− mice. Mice were induced with K/B×N serum on days 0 and 2 to have arthritis and related pain. Compound 5 was administered (750 nmol) IP BID on days 0-5. […] (B) These effects of compound 5 are not seen in similarly treated Tmem173−/− mice. Mechanical allodynia is measured with monofilaments in a von Frey assay and increase in pain perception by the animal is recorded as a drop in the threshold. *P<0.0001 by two-way ANOVA.

Another data set relates to NF-κB. Description: NF-κB activation assay in LPS stimulated CellSensor NF-κB-bla THP-1 reporter cells. The data set is classed as cell-based, human. Particulars: 5 h and 16 h time points.
Where [8] appears, read: WT mice, 750 nmoles IP BID for 6 days.

Experimental for NF-κB: In the presence of lactamase, CCF4 was enzymatically cleaved and excitation at 409 nm produced a blue fluorescence signal (at 450 nm), The CellSensor® NF-κB-bla THP-1 cells were dispersed in 96-well plates (5×10^4 cells/200 μL/well) and incubated for 4 h, Then the cells were treated with 5 μM of each compound and 10 ng/ml of LPS for 5 or 12 h in 5% CO2 at 37° C. After incubation, the ß-lactamase substrate mixture (prepared according to the manufacturer's protocol) was added to each well. Plates were incubated at room temperature in the dark for 2 h. Fluorescence was measured on a Tecan Infinite M200 plate reader (Tecan, Mannedorf, Switzerland) at an excitation wavelength of 405 nm and emission wavelengths of 465 and 535 nm. Emission ratios are calculated by dividing values from emission wavelength of 465 nm by those from emission wavelength of 535 nm, The response ratio was calculated as follows [(emission ratio of a test well)/average emission ratio of wells with vehicle (0.5% DMSO)] and values were normalized to the LPS control treated wells [response ratio of the compound/response ratio of LPS].
Using LPS as a primary inflammatory stimulus the effect of these compounds on NF-κB activity was evaluated at two time points to profile the kinetics of their suppression.

In the case of `CCCCNc1ncnc2c1cnn2-c1ccc(C)cc1C` [Compound 1-2], the “CXCL8 production. Relative to LPS (purchased)” value with THP-1 cells [1] is listed as 70.1%. Further, the “% Cellular Viability (Purchased)” value in the data set on THP-1 cells [2] (purchased compound) amounted to 100.1%. Further, the IC50 in the data set with THP-1 cells [3] was 4.13 µM; in the data set on THP-1 cells [4] it was 1770 nM; in the data set with THP-1 cells [5] (THP-1 cells, IL-1ß 2 ng/ml, overnight (FIG. 3D)) it was 2770 nM. Further, in the data set on THP-1 cells [6] (TNF 2 ng/ml stimulated THP-1 cells, serially diluted compound plus 100 nM DEX (FIGS. 4A-C)), the “Effect of addition of DEX on CXCL8 production” value is given as “only effective at the lower doses”. Besides, the “Synergy with DEX, isobologram of potency ratios for CXCL8” value in the data set with THP-1 cells [6] (TNF stimulated THP-1 cells, compound and DEX titrated at same molarity (FIG. 5D)) was “modestly synergistic”.
With `CCOc1ccc(NC(=O)c2ccc([N+](=O)[O-])o2)cc1` [Compound 4], the “Cellular viability (% Viability compared to Veh)” value in the data set with THP-1 cells [2] is “approximately 100%”. The “TNF release when stimulated with IL-1ß” value with THP-1 cells [5] (THP-1 cells) is “Dose-dependent inhibition”. For the same compound, in [7], the “mIP-10 production induced by TLR4 (LPS), TLR7 (1V270) and STING (DMXAA) ligands” value (“mIP-10 production induced by TLR4 (LPS)” below) is “inhibited”; the “mTNF-a production induced by TLR4 (LPS), TLR7 (1V270) and STING (DMXAA) ligands” value (shortened to “mTNF-a production induced by TLR4 (LPS)”) is reported as “inhibited”. Further, in the data set with mBMDCs, the “IFNβ induced by DMXAA” value is “Dose-dependent inhibition”.
Regarding `O=C(Nc1cccc(C(F)(F)F)c1)c1ccc([N+](=O)[O-])o1` [Compound 5], the “Cellular viability (% Viability compared to Veh)” value with THP-1 cells [2] is “approximately 100%”. In the data set with THP-1 cells [5] (THP-1 cells stimulated with IL-1β, TNF-a (FIG. 9E)), the “Cytokine inhibition IC50, human cell studies” value is “nanomolar (nM) range”. Moreover, in the data set with THP-1 cells [5] (THP-1 cells), the “TNF release when stimulated with IL-1ß” value was “Dose-dependent inhibition”. Moreover, in [7], the “mIP-10 production induced by TLR4 (LPS)” value is on record as “inhibited”; the “mTNF-a production induced by TLR4 (LPS)” value is given as “inhibited”. For the same compound, the “IFNβ induced by DMXAA” value in the data set with mBMDCs is given as “Dose-dependent inhibition”. Besides, in the data set with mBMDCs (mBMDCs stimulated with DMXAA, IFNβ (FIG. 9F)), the “Cytokine inhibition IC50, mouse cell studies” value is “nanomolar (nM) range”. For the same compound, the “Pain or swelling in Tmem173-/- mice” value in the data set with mice (Tmem173-/- mice, 750 nmol IP BID) is “no statistically significant effect”. Besides, in the data set with mice (setting [8]), the “Acute inflammation in the ankle (ankle thickness)” value is given as “modest effect” and the “Mechanical allodynia (von Frey filaments)” value is “significantly reduced”.
For `O=C(Nc1cc([N+](=O)[O-])ccc1Cl)c1ccc([N+](=O)[O-])o1` [Compound 6], in the data set on THP-1 cells [2], the “Cellular viability (% Viability compared to Veh)” value is “approximately 100%”. For the same compound, in the data set on THP-1 cells [5] (THP-1 cells), the “TNF release when stimulated with IL-1ß” value is on record as “Dose-dependent inhibition”. For the same compound, in data set [7], the “mIP-10 production induced by TLR4 (LPS)” value is recorded as “inhibited”; the “mTNF-a production induced by TLR4 (LPS)” value is given as “inhibited”. In addition, the “IFNβ induced by DMXAA” value with mBMDCs is given as “Dose-dependent inhibition”.
Consider `C[C@@H]1C[C@H]2[C@@H]3CCC4=CC(=O)C=C[C@]4(C)[C@@]3(F)[C@@H](O)C[C@]2(C)[C@@]1(O)C(=O)CO` [DEX, dexamethasone, reference compound], for which the IC50 in the data set on THP-1 cells [6] (Homo sapiens, TNF stimulated THP-1 cells, single agents (FIG. 5A), read-out: IC50 for TNF stimulated CXCL8 release (titration with DEX)) is 300 nM.
With `NC(=O)Nc1sc(-c2ccc(F)cc2)cc1C(N)=O` [UTC, 5-(4-fluorophenyl)-2-ureidothiophene-3 carboxylic acid amide], the “Inhibition of NF-κB activity” value with NF-κB is “inhibited NF-κB activity at both time points”.
On the same count and under the same terms, with polymyxin B the entry was “suppressed NF-κB activity at both timepoints”.
